Among the data in US11939314B2, “Quinolin-2-one derivatives” (MERCK PATENT GMBH, priority 2016, dated 2024) are IC50 values, retold here.

The target in one experiment is T1, c-Kit(V654A) (Homo sapiens, UniProt P10721, V654A).
T1 construct: amino acids 544-end containing the V654A mutation; GST (N)
The experiment is described as follows: c-Kit(V654A) assay. The experiment is classed as biochemical. Particulars: recombinant human c-Kit aa 544-end, 200 μM ATP, 1.4E-06 means 1.4×10^−6, read-out: Inhibition (IC50) of c-KIT (V654A). The procedure, abridged: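 Radiometric filter-binding read-out: substrate 33P incorporation counted by scintillation after P30 filtermat washes in 75 mM phosphoric acid and methanol. Enzyme: N-GST recombinant human c-Kit aa 544-end carrying V654A.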

The target of a further experiment is T2, PDGFRalpha(V561D) (Homo sapiens, UniProt P16234, V561D).
T2 construct: recombinant human PDGFRalpha, amino acids 550end containing the V561 D mutation; 6His (N)
The experiment is described as follows: PDGFRalpha(V561D) assay. The experiment is classed as biochemical. Particulars: recombinant human PDGFRalpha aa 550-end, 200 μM ATP, 1.4E-06 means 1.4×10^−6, read-out: Inhibition (IC50) of PDGFRα (V561D). The procedure, abridged:
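Radiometric filter-binding assay: substrate phosphorylation by recombinant N-His-tagged human PDGFRα 550-end V561D was quenched with 3% phosphoric acid after 40 min at room temperature, then counted.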

The IC50 is the concentration that gives 50% inhibition.

T2 sequence (P16234 550-1089 V561D): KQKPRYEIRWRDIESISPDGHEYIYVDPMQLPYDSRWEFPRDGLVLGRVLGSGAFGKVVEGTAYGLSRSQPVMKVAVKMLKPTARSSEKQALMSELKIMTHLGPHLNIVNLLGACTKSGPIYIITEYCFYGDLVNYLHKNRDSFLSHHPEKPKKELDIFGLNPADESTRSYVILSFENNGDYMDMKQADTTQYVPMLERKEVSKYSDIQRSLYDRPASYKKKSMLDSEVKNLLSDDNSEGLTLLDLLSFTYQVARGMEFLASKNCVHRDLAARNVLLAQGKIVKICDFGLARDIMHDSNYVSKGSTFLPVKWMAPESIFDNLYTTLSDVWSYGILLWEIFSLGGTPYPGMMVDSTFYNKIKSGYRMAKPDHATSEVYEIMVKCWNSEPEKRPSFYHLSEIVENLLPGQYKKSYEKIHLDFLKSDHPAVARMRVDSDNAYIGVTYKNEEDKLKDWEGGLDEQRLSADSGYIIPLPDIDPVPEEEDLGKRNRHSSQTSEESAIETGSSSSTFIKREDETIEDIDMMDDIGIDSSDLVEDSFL
T1 sequence (P10721 544-976 V654A): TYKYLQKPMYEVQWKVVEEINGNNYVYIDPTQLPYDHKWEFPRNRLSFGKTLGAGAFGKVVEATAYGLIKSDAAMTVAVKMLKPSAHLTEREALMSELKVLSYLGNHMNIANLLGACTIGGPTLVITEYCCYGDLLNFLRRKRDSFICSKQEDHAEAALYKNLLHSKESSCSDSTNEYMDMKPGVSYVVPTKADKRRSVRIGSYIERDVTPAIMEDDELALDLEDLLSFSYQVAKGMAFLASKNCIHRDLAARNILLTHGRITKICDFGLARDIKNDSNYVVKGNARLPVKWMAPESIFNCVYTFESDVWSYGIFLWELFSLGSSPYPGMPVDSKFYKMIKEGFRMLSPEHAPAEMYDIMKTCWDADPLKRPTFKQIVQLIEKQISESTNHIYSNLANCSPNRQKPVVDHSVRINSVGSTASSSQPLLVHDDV

As to `CN1CCC(C(=O)c2ccc(-n3cc(-c4cc5cc(F)c(F)cc5[nH]c4=O)nn3)cc2)CC1` [A164, 6,7-difluoro-3-{1-[4-(1-methyl-piperidine-4-carbonyl)-phenyl]-1H-[1,2,3]triazol-4-yl}-1H-quinolin-2-one], the results for the IC50 on c-Kit(V654A) and on PDGFRalpha(V561D) were 8.4 nM and 11 nM, respectively.
The corresponding values for `CN1CCN(C(=O)COc2ccc(-n3cc(-c4cc5cc(F)ccc5[nH]c4=O)nn3)cc2)CC1` [A165, 6-fluoro-3-(1-{4-[2-(4-methyl-piperazin-1-yl)-2-oxo-ethoxy]-phenyl}-1H-[1,2,3]triazol-4-yl)-1H-quinolin-2-one] are 30 nM and 33 nM.
The corresponding values for `CN1CCC(CCOc2ccc(-n3cc(-c4cc5cc(F)c(F)cc5[nH]c4=O)nn3)cc2)CC1` [A166, 6,7-difluoro-3-(1-{4-[2-(1-methyl-piperidin-4-yl)-ethoxy]-phenyl}-1H-[1,2,3]triazol-4-yl)-1H-quinolin-2-one] are 8 nM and 43 nM.
The corresponding values for `CN1CCN(C(=O)COc2ccc(-n3cc(-c4cc5cc(F)c(F)cc5[nH]c4=O)nn3)cc2)CC1` [A167, 6,7-difluoro-3-(1-{4-[2-(4-methyl-piperazin-1-yl)-2-oxo-ethoxy]-phenyl}-1H-[1,2,3]triazol-4-yl)-1H-quinolin-2-one] are 18 nM and 21 nM.
`Cc1ccc2[nH]c(=O)c(-c3cn(-c4ccc(C(=O)N5CCN(C)CC5)cc4)nn3)cc2c1` [A168, 6-methyl-3-{1-[4-(4-methyl-piperazine-1-carbonyl)-phenyl]-1H-[1,2,3]triazol-4-yl}-1H-quinolin-2-one]: the IC50 at c-Kit(V654A) turned out to be 37 nM; at PDGFRalpha(V561D), 100 nM.
The corresponding values for `CN1CCN(C(=O)Cc2ccc(-n3cc(-c4cc5cc(F)c(F)cc5[nH]c4=O)nn3)cc2)CC1` [A169, 6,7-difluoro-3-(1-{4-[2-(4-methyl-piperazin-1-yl)-2-oxo-ethyl]-phenyl}-1H-[1,2,3]triazol-4-yl)-1H-quinolin-2-one] are 14 nM and 430 nM.
The corresponding values for `CN1CCN(C(=O)c2ccc(-n3cc(-c4cc5ccc(C(F)(F)F)cc5[nH]c4=O)nn3)cc2)CC1` [A170, 3-{1-[4-(4-methyl-piperazine-1-carbonyl)-phenyl]-1H-[1,2,3]triazol-4-yl}-7-trifluoromethyl-1H-quinolin-2-one] are 1800 nM and 12000 nM.
The corresponding values for `CN(C)C1CCN(C(=O)c2ccc(-n3cc(-c4cc5cc(F)c(F)cc5[nH]c4=O)nn3)cc2)CC1` [A171, 3-{1-[4-(4-dimethylamino-piperidine-1-carbonyl)-phenyl]-1H-[1,2,3]triazol-4-yl}-6,7-difluoro-1H-quinolin-2-one] are 17 nM and 190 nM.
As for `CN(C)C1CCN(C(=O)c2ccc(-n3cc(-c4cc5cc(F)ccc5[nH]c4=O)nn3)cc2)CC1` [A172, 3-{1-[4-(4-dimethylamino-piperidine-1-carbonyl)-phenyl]-1H-[1,2,3]triazol-4-yl}-6-fluoro-1H-quinolin-2-one], the IC50 on c-Kit(V654A) was 6.3 nM; at PDGFRalpha(V561D), 25 nM.
The corresponding values for `COCCN1CCN(C(=O)c2ccc(-n3cc(-c4cc5cc(F)cnc5[nH]c4=O)nn3)cc2)CC1` [A175, 6-Fluoro-3-(1-{4-[4-(2-methoxy-ethyl)-piperazine-1-carbonyl]-phenyl}-1H-[1,2,3]triazol-4-yl)-1H-[1,8]naphthyridin-2-one] are 92 nM and 6 nM.
The corresponding values for `CN1CCN(CCOc2ccc(-n3cc(-c4cc5cc(F)ccc5[nH]c4=O)nn3)cc2)CC1` [A176, 6-fluoro-3-(1-{4-[2-(4-methyl-piperazin-1-yl)-ethoxy]-phenyl}-1H-[1,2,3]triazol-4-yl)-1H-quinolin-2-one] are 6.7 nM and 1.6 nM.
The corresponding values for `N#Cc1ccc2cc(-c3cn(-c4ccc(C(=O)N5CCOCC5)cc4)nn3)c(=O)[nH]c2c1` [A177, 3-{1-[4-(morpholine-4-carbonyl)-phenyl]-1H-[1,2,3]triazol-4-yl}-2-oxo-1,2-dihydro-quinoline-7-carbonitrile] are 170 nM and 57 nM.
As for `CN1CCN(C(=O)Cn2ccc3cc(-n4cc(-c5cc6cc(F)ccc6[nH]c5=O)nn4)ccc32)CC1` [A178, 6-fluoro-3-(1-{1-[2-(4-methyl-piperazin-1-yl)-2-oxo-ethyl]-1H-indol-5-yl}-1H-[1,2,3]triazol-4-yl)-1H-quinolin-2-one], the IC50 at c-Kit(V654A) came to 3.9 nM; on PDGFRalpha(V561D) it was 1.3 nM.
The corresponding values for `CC(=O)O[C@@H]1CCN(C(=O)c2ccc(-n3cc(-c4cc5cc(F)ccc5[nH]c4=O)nn3)cc2)C1` [A179, acetic acid (R)-1-{4-[4-(6-fluoro-2-oxo-1,2-dihydro-quinolin-3-yl)-[1,2,3]triazol-1-yl]-benzoyl}-pyrrolidin-3-yl ester] are 14 nM and 1.6 nM.
Take `CC(=O)O[C@H]1CCN(C(=O)c2ccc(-n3cc(-c4cc5cc(F)ccc5[nH]c4=O)nn3)cc2)C1` [A180, acetic acid (S)-1-{4-[4-(6-fluoro-2-oxo-1,2-dihydro-quinolin-3-yl)-[1,2,3]triazol-1-yl]-benzoyl}-pyrrolidin-3-yl ester]: the IC50 was 9.5 nM at c-Kit(V654A) and 0.5 nM at PDGFRalpha(V561D).
Take `O=C(c1ccc(-n2cc(-c3cc4cc(F)ccc4[nH]c3=O)nn2)cc1)N1CC[C@@H](O)C1` [A181, 6-fluoro-3-{1-[4-((R)-3-hydroxy-pyrrolidine-1-carbonyl)-phenyl]-1H-[1,2,3]triazol-4-yl}-1H-quinolin-2-one]: the IC50 at c-Kit(V654A) amounted to 8.5 nM; on PDGFRalpha(V561D), 0.71 nM.
The corresponding values for `O=C(c1ccc(-n2cc(-c3cc4cc(F)ccc4[nH]c3=O)nn2)cc1)N1CC[C@H](O)C1` [A182, 6-fluoro-3-{1-[4-((S)-3-hydroxy-pyrrolidine-1-carbonyl)-phenyl]-1H-[1,2,3]triazol-4-yl}-1H-quinolin-2-one] are 13 nM and 1.2 nM.
The corresponding values for `O=C(c1ccc(-n2cc(-c3cc4cc(F)ccc4[nH]c3=O)nn2)cc1)N1CCC(O)CC1` [A183, 6-fluoro-3-{1-[4-(4-hydroxy-piperidine-1-carbonyl)-phenyl]-1H-[1,2,3]triazol-4-yl}-1H-quinolin-2-one] are 7.5 nM and 26 nM.
On to `O=C(c1ccc(-n2cc(-c3cc4cc(F)ccc4[nH]c3=O)nn2)cc1)N1CCCC(O)C1` (stereo not drawn) [A184, 6-fluoro-3-{1-[4-(3-hydroxy-piperidine-1-carbonyl)-phenyl]-1H-[1,2,3]triazol-4-yl}-1H-quinolin-2-one], for which the IC50 was 18 nM at c-Kit(V654A) and 11 nM at PDGFRalpha(V561D).
The corresponding values for `CCN(CC)CCNC(=O)c1ccc(-n2cc(-c3cc4cc(F)c(F)cc4[nH]c3=O)nn2)cc1` [A187, N-(2-diethylamino-ethyl)-4-[4-(6,7-difluoro-2-oxo-1,2-dihydro-quinolin-3-yl)-[1,2,3]triazol-1-yl]-benzamide] are 36 nM and 76 nM.
The corresponding values for `CCN(CC)CCNC(=O)c1ccc(-n2cc(-c3cc4cc(F)c(Cl)cc4[nH]c3=O)nn2)cc1` [A188, 4-[4-(7-chloro-6-fluoro-2-oxo-1,2-dihydro-quinolin-3-yl)-[1,2,3]triazol-1-yl]-N-(2-diethylamino-ethyl)-benzamide] are 26 nM and 1600 nM.
Turning to `CCN(CC)CCN1CCN(C(=O)c2ccc(-n3cc(-c4cc5cc(F)c(F)cc5[nH]c4=O)nn3)cc2)CC1` [A189, 3-(1-{4-[4-(2-diethylamino-ethyl)-piperazine-1-carbonyl]-phenyl}-1H-[1,2,3]triazol-4-yl)-6,7-difluoro-1H-quinolin-2-one], the IC50 at c-Kit(V654A) turned out to be 110 nM; at PDGFRalpha(V561D), 430 nM.
The corresponding values for `COC1CCN(C(=O)c2ccc(-n3cc(-c4cc5cc(F)ccc5[nH]c4=O)nn3)cc2)CC1` [A190, 6-fluoro-3-{1-[4-(4-methoxy-piperidine-1-carbonyl)-phenyl]-1H-[1,2,3]triazol-4-yl}-1H-quinolin-2-one] are 9.7 nM and 64 nM.
With `COC1CCN(C(=O)c2ccc(-n3cc(-c4cc5cc(F)c(F)cc5[nH]c4=O)nn3)cc2)CC1` [A191, 6,7-difluoro-3-{1-[4-(4-methoxy-piperidine-1-carbonyl)-phenyl]-1H-[1,2,3]triazol-4-yl}-1H-quinolin-2-one], the IC50 was 15 nM on c-Kit(V654A) and 240 nM at PDGFRalpha(V561D).
The corresponding values for `CO[C@@H]1CCCN(C(=O)c2ccc(-n3cc(-c4cc5cc(F)c(F)cc5[nH]c4=O)nn3)cc2)C1` [A192, 6,7-difluoro-3-{1-[4-((R)-3-methoxy-piperidine-1-carbonyl)-phenyl]-1H-[1,2,3]triazol-4-yl}-1H-quinolin-2-one] are 230 nM and 200 nM.
`CO[C@H]1CCCN(C(=O)c2ccc(-n3cc(-c4cc5cc(F)c(F)cc5[nH]c4=O)nn3)cc2)C1` [A193, 6,7-difluoro-3-{1-[4-((S)-3-methoxy-piperidine-1-carbonyl)-phenyl]-1H-[1,2,3]triazol-4-yl}-1H-quinolin-2-one]: the values for the IC50 on c-Kit(V654A) and on PDGFRalpha(V561D) were 230 nM and 200 nM, respectively.
The corresponding values for `CO[C@@H]1CCCN(C(=O)c2ccc(-n3cc(-c4cc5cc(F)ccc5[nH]c4=O)nn3)cc2)C1` [A194, 6-fluoro-3-{1-[4-((R)-3-methoxy-piperidine-1-carbonyl)-phenyl]-1H-[1,2,3]triazol-4-yl}-1H-quinolin-2-one] are 49 nM and 91 nM.
